# Columns and labels:
# β-arrestin1/2 [1] = type: cell-based, human
# ERK1/2 = conditions: see WO 2012/149547; cited from earlier work
# [2] = system: human SS RBC adhesion to vascular endothelium and vaso-occlusion; assay: Intravital microscopy of ex vivo treated human SS RBCs infused into nude mice (window chamber); type: in vivo; conditions: nude mice n=2; SS RBCs treated ex vivo with 20 nM epinephrine 1 min
# Description: For some in vivo adhesion studies, packed SS RBCs were fluorescently labeled with the dye Dil (Molecular Probes Inc., Eugene, Oreg.), following the manufacturer's instructions, prior to cell treatment. Dil has been used in previous in vivo studies, and this dye has no effect on RBC suspension viscosity and RBC survival in circulation.^30 Cell morphology was checked by microscopy.
# All animal experiments were carried out in accordance with protocols approved by the Duke University Animal Care and Use Committee. Female athymic homozygous nude mice (nu-/nu-) were between 8-12 weeks of age (Charles River Laboratories, Wilmington, Mass.).
# General anesthesia was achieved by intra-peritoneal injection of 100 mg/kg of ketamine (Abbott Laboratory, Chicago, Ill.) and 10 mg/kg of xylazine (Bayer, Shawnee Mission, Kans.). […]
# Animals were infused with washed SS RBCs (300 μl hematocrit (Hct) 50% in saline) treated with epinephrine at 20 nM for 1 min or 5 μM βARK1 for 1 hour followed by treatment with 20 nM epinephrine for 1 min. […] Microcirculatory events and cell adhesion were simultaneously recorded using a Trinitron Color video monitor (PVM-1353 MD, Sony) and JVC videocassette recorder (BR-S3784, VCR King, Durham, N.C.) connected to a digital video camera C2400 (Hamamatsu Photonics K.K., Japan). […]
# cAMP = conditions: SS RBCs
# ERK [3] = conditions: cited from earlier work
# β-arrestin1/2 [4] = assay: Western blot of SS RBC membrane ghosts for β-arrestin1/2 and phosphorylated β-arrestin1
# GRK2 = target: T1, GRK2 (Homo sapiens, UniProt P25098); assay: Western blot of SS RBC membrane ghosts for total and phosphorylated GRK2
# T1 sequence (P25098 1-689): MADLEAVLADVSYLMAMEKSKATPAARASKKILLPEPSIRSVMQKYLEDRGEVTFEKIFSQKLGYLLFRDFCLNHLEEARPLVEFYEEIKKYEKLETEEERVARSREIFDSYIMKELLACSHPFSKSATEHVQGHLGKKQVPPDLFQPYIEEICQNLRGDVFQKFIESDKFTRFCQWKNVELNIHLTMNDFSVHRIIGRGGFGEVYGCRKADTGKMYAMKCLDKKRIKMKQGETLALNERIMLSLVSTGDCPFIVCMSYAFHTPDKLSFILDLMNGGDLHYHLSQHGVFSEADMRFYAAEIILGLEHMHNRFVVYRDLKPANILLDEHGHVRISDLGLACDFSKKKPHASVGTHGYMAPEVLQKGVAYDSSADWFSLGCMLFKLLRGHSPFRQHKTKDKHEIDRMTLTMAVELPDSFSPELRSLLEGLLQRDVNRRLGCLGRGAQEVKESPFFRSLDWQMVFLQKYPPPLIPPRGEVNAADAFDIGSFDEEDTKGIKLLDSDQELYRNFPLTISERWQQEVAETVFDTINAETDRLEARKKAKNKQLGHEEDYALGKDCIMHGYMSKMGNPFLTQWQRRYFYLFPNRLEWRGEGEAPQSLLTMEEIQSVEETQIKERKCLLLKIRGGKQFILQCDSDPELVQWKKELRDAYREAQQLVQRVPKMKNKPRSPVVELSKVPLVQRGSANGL
# ERK [5] = type: cell-based, human
# [6] = system: SS RBCs co-incubated with polymorphonuclear cells (PMNs); conditions: previously shown; SS RBCs co-incubated with naive PMNs; cited from earlier work
smiles,measurement,setting,value
"CNC[C@H](O)c1ccc(O)c(O)c1 [Epi, epinephrine]",basal phosphorylation of β-arrestin1,β-arrestin1/2 [1],failed to increase
same,membrane-recruitment of β-arrestin1/2,β-arrestin1/2 [1],failed to increase
same,ERK phosphorylation/activation in normal RBCs,ERK1/2,fails to become phosphorylated/activated
same,SS RBC adhesion in inflamed venules,[2],marked adhesion
same,vaso-occlusion (occlusion of vessels),[2],induced occlusion
same,SCD patient samples tested in which cAMP levels increased,cAMP,50%
same,ERK phosphorylation,ERK [3],enhanced
same,β-arrestin1/2 membrane-recruitment (translocation),β-arrestin1/2 [4],enhanced
same,β-arrestin1 phosphorylation,β-arrestin1/2 [4],enhanced
N#CC(=C(/N)Sc1ccccc1N)/C(C#N)=C(\N)Sc1ccccc1N [U0126],effect on CT-induced GRK2 membrane-translocation,GRK2,significantly abrogated
same,effect on CT-induced GRK2 phosphorylation,GRK2,significantly abrogated
same,effect on PTx-induced GRK2 membrane-translocation,GRK2,significantly abrogated
same,effect on PTx-induced GRK2 phosphorylation,GRK2,significantly abrogated
same,effect on CT-increased ERK phosphorylation,ERK [5],inhibited
same,ability of SS RBCs to promote PMN adhesion to ECs,[6],decreased
same,effect on CT-induced β-arrestin1/2 membrane-translocation,β-arrestin1/2 [4],significantly inhibited
same,effect on PTx-induced β-arrestin1/2 recruitment to the membrane,β-arrestin1/2 [4],failed to have an effect
same,effect on levels of β-arrestin1 phosphorylation (CT-treated),β-arrestin1/2 [4],decreased
CC(=O)Nc1cccc(-n2c(=O)n(C3CC3)c(=O)c3c(Nc4ccc(I)cc4F)n(C)c(=O)c(C)c32)c1 [GSK1120212],ability of SS RBCs to promote PMN adhesion to ECs,[6],decreased
Cn1cnc2c(F)c(Nc3ccc(Br)cc3Cl)c(C(=O)NOCCO)cc21 [AZD6244],ability of SS RBCs to promote PMN adhesion to ECs,[6],decreased
COc1cc(F)c(F)c(Nc2ccc(I)cc2F)c1NS(=O)(=O)C1(C[C@H](O)CO)CC1 [RDEA119],ability of SS RBCs to promote PMN adhesion to ECs,[6],decreased
